Experimental data: US10858425B2, “Pan-ELR+ CXC chemokine antibodies” (Eli Lilly and Company, priority 2013, dated 2020)

Experiments:
[1] = system: SKOV3-Luc ovarian cancer cells; experiment: SKOV3-Luc ovarian cancer xenograft model; assay type: in vivo, athymic nude female mice
Method: SKOV3-Luc is a human ovary cancer cell line that expresses firefly luciferase gene. SKOV3-Luc cells are often used in vivo to establish human ovarian adenocarcinoma tumor growth.
SKOV3-Luc ovarian cancer cells were mixed 1:1 with matrigel and implanted subcutaneously in the right rear flank of athymic nude female mice at 3.0×10^6 cells per injection. Mice were randomized into 4 groups at baseline according to tumor volume after the xenografts were grown to an average tumor volume of 200 mm^3. Mice received either control IgG4 antibody (2.5 mg/kg once a week), cisplatin (2.5 mg/kg once a week), Antibody 1 (20 mg/kg once a week), or a combination of cisplatin (2.5 mg/kg once a week) and Antibody 1 (20 mg/kg once a week) by intraperitoneal injection.

[2] = biological target: T1, human CXCR2 (U937-huCXCR2 cells) (Homo sapiens, UniProt P25025); experiment: U937-huCXCR2 FLIPR activity of human CXCL8 wild type and mutants; assay type: cell-based; details: CXCL8 variant as ligand on U937-huCXCR2 cells
T1 construct: expressed in transfected cells; host or cells: U937 monocytic cell line, retrovirally transduced
T1 sequence (P25025 1-360): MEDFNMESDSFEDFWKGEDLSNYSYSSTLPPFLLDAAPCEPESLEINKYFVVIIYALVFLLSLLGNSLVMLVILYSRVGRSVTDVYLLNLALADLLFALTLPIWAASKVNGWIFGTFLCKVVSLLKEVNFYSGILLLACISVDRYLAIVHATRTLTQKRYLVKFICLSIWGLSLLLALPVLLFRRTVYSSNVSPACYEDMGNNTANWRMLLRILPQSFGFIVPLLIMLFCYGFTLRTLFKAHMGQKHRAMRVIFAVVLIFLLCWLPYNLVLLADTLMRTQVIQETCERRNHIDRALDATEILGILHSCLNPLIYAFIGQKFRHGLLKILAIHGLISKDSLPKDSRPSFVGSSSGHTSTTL
Method: Wild type and mutant human CXCL8 are tested for biologic activity and for neutralization by Antibody 1 using the U937-huCXCR2 assay. U937-huCXCR2 is a monocytic cell line transduced with retrovirus for expression of human CXCR2. A description of the U937-huCXCR2 assay is found below under Neutralizing Assays.
CXCL8 mutants are serially diluted in Assay Buffer containing 0.2% BSA in wells of v-bottom 96-well polypropylene plates. Ligand concentrations are 3 times the final assay concentration (final assay concentrations range from 300 to 0.0051 nM). A cell plate and a ligand plate are loaded into a Fluorescent Imaging Plate Reader (FLIPR-3, Molecular Devices) programmed to transfer 50 μL of ligand to wells of the cell plate. Fluorescence is recorded at 1 second intervals for 90 seconds. The change in fluorescence [delta relative fluorescence units (DRFU), Max RFU-Min RFU] is calculated from images 10 to 90. DRFU versus log (ligand concentration) is plotted and EC50 values are determined by nonlinear regression using Graph Pad Prism. Assays are performed in triplicate over three assay plates.

N.N.[Cl][Pt][Cl] [Cisplatin, cisplatin]
Average Tumor Volume ([1]; Day 14): 122.65 mm^3
Average Tumor Volume ([1]; Day 19): 190.65 mm^3
Average Tumor Volume ([1]; Day 22): 289.15 mm^3
Average Tumor Volume ([1]; Day 26): 484.72 mm^3
Average Tumor Volume ([1]; Day 32): 806.31 mm^3
Average Tumor Volume ([1]; Day 35): 923.02 mm^3
Average Tumor Volume ([1]; Day 40): 941.42 mm^3
Average Tumor Volume ([1]; Day 43): 1047.34 mm^3
tumor growth inhibition ([1]; compared to isotype control, intraperitoneal, once a week): did not show statistically significant tumor growth inhibition

I10A: human CXCL8 point mutant I10A based on SEQ ID NO: 27 [Antibody I10A]
U937 FLIPR activity EC50 [2]: Not Active

I40A: human CXCL8 point mutant I40A based on SEQ ID NO: 27 [Antibody I40A]
U937 FLIPR activity EC50 [2]: Not Active

R6A: human CXCL8 point mutant R6A based on SEQ ID NO: 27 [Antibody R6A]
U937 FLIPR activity EC50 [2]: Not Active
